According to paper PMC5656517 (European journal of pharmaceutical sciences : official …, 2017):
Values after ≈ are worked out from the molar mass of the structure shown. Like-named read-outs stand apart in the source and are kept apart here.

Assays:
[1] = tested on: CYP3A4 (testosterone); details: ref He et al. (2015); cited from earlier work
[2] = biological target: T1, CYP3A4 (Homo sapiens, UniProt P08684); assay type: in vitro ADME; details: recombinant human CYP3A4, 20 µM
Target sequence in this assay (P08684 2-503 limits assumed): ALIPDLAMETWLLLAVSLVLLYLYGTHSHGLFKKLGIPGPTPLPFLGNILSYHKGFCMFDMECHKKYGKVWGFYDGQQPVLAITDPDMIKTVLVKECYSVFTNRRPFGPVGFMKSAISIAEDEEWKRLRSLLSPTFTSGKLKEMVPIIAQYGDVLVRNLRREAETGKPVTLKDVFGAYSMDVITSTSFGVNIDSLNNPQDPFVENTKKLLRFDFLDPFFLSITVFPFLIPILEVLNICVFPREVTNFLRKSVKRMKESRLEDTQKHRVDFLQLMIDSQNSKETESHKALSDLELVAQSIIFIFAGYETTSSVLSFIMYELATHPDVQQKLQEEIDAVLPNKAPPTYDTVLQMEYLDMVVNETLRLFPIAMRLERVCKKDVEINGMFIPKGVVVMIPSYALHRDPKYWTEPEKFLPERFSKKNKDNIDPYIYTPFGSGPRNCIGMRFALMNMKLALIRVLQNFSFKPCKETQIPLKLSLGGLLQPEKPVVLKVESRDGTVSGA

[3] = biological target: T1, CYP3A4; assay: Effect of washing to restore CYP3A4 activity, human liver microsomes; assay type: in vitro ADME; details: 50 µM, 30 min preincubation, washed 3 times, midazolam
Target sequence in this assay (P08684 whole entry): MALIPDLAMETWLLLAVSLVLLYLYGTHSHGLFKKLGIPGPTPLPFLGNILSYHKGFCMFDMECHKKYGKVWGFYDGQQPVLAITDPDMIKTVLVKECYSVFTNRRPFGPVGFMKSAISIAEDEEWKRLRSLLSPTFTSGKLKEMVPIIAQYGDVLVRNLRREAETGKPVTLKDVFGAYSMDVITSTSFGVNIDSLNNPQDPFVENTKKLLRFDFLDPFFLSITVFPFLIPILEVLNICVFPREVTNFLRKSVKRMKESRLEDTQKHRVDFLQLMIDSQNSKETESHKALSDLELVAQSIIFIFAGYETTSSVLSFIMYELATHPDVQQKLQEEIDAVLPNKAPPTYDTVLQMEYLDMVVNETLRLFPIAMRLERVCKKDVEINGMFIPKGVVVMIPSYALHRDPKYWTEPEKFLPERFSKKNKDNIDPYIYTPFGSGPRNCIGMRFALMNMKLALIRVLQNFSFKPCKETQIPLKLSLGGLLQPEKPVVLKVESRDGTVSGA

[4] = biological target: CYP2E1 (Homo sapiens, UniProt P05181); assay: Cocktail assay IC50 determination in human liver microsomes; details: substrate chloroxazone
[5] = biological target: CYP2D6 (Homo sapiens, UniProt P10635); assay: as above; details: substrate dextromethorphan, mean ± standard deviation
[6] = biological target: T2, CYP2A6 (Homo sapiens, UniProt P11509); assay: as above; details: substrate coumarin
T2 sequence (P11509 1-494): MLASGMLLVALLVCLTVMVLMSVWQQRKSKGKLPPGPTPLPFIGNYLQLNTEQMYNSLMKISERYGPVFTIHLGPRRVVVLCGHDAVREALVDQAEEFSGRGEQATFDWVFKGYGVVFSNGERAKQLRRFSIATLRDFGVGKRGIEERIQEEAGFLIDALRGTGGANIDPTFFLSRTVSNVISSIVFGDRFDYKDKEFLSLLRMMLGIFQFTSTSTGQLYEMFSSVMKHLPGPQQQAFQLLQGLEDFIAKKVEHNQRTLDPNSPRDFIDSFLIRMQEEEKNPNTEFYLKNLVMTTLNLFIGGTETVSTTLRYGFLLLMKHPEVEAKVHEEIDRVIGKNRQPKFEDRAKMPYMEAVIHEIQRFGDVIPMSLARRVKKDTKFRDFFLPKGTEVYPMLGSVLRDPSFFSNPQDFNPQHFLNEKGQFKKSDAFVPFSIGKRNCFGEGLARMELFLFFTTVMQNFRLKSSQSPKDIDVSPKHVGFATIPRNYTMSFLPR

[7] = biological target: T3, CYP2C9 (Homo sapiens, UniProt P11712); assay: as above
[8] = biological target: T3, CYP2C9; assay: Single concentration; details: human liver microsomes
[9] = biological target: T4, CYP1A2 (Homo sapiens, UniProt P05177); details: ref He et al. (2015); cited from earlier work
T4 sequence (P05177 1-516): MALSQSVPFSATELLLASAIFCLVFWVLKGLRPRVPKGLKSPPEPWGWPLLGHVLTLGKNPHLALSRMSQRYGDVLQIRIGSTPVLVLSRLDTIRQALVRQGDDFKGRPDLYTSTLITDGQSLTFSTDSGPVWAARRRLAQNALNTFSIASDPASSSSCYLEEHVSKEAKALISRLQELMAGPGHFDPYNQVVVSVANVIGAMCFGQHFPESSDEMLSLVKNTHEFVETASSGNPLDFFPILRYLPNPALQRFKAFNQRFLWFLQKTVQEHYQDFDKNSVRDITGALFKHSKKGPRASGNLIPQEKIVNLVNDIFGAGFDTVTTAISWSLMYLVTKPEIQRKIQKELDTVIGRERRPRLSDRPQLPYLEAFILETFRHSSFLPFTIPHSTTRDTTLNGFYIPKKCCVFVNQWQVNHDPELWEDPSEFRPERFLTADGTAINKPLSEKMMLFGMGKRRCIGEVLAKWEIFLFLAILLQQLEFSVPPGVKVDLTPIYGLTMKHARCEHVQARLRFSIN

[10] = biological target: T5, CYP2C8 (Homo sapiens, UniProt P10632); assay: Cocktail assay IC50 determination in human liver microsomes; details: substrate amodiaquine, mean ± standard deviation
T5 sequence (P10632 1-490): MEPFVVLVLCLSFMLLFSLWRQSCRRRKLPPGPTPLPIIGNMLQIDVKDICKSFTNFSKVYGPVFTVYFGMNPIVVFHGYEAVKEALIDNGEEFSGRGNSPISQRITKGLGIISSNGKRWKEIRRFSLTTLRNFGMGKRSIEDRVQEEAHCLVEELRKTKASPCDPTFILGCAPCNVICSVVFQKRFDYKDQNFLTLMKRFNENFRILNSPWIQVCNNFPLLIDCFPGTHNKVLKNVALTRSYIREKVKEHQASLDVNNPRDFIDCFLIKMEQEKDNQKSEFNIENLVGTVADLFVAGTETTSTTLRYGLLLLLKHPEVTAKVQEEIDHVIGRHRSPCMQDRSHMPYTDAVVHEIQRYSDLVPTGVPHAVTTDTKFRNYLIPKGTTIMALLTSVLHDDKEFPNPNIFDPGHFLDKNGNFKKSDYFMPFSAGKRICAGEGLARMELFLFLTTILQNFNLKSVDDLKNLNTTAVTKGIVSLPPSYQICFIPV

[11] = biological target: T4, CYP1A2; assay: Single concentration; details: human liver microsomes
[12] = tested on: CYP2C; details: ref He et al. (2015); cited from earlier work
[13] = biological target: T1, CYP3A4; assay: Effect of washing to restore CYP3A4 activity, recombinant CYP3A4; assay type: in vitro ADME; details: recombinant CYP3A4, 10 µM, 30 min preincubation, washed 3 times, midazolam
Target sequence in this assay (P08684 2-503 limits assumed): as the sequence (P08684 2-503 limits assumed) above

[14] = biological target: T6, CYP2C19 (Homo sapiens, UniProt P33261); details: human liver microsomes, substrate (S)-mephenytoin, mean ± standard deviation
[15] = biological target: T1, CYP3A4; assay: KI and kinact determination with recombinant CYP3A4; assay type: in vitro ADME
Target sequence in this assay (P08684 2-503 limits assumed): as above

[16] = biological target: T6, CYP2C19; assay: Single concentration; details: human liver microsomes

T3 sequence (P11712 whole entry): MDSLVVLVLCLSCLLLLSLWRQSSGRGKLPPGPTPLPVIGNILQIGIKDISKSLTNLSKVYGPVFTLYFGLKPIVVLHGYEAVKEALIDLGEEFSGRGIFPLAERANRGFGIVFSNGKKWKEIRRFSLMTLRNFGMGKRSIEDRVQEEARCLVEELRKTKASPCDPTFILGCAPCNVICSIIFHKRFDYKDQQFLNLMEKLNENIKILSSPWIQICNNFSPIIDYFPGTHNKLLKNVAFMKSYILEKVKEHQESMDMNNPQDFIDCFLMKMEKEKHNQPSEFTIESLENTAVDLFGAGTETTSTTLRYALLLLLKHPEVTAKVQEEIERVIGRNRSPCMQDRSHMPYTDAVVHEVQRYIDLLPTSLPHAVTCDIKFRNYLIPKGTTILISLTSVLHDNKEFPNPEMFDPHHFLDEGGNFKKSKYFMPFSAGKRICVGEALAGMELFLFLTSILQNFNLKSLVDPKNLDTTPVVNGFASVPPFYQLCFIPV
T6 sequence (P33261 whole entry): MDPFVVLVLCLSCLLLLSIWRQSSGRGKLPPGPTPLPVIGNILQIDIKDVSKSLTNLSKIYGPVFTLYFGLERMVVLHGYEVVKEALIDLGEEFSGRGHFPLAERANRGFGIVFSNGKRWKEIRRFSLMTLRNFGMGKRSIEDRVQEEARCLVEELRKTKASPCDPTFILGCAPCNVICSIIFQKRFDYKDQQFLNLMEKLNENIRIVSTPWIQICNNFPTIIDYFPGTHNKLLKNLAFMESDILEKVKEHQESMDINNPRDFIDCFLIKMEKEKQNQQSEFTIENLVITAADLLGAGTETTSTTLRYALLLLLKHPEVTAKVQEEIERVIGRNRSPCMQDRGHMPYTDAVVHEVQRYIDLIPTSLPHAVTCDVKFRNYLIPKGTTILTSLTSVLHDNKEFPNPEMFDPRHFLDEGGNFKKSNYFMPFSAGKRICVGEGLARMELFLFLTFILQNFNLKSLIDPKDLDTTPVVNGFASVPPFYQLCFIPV
Sequence of CYP2D6 (P10635 whole entry): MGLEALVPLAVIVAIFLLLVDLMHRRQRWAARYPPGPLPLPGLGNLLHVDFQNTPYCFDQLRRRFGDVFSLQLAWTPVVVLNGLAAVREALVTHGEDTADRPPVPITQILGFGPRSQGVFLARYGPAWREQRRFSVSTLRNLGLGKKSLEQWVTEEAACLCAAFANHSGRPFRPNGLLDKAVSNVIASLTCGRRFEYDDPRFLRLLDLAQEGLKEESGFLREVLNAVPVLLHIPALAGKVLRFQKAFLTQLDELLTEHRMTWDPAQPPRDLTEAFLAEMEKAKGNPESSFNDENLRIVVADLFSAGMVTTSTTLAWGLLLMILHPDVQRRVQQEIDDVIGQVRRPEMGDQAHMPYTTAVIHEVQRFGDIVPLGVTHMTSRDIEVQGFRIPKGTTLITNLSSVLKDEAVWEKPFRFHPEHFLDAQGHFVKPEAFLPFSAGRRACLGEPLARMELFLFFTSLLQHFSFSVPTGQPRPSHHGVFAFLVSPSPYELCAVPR
Sequence of CYP2E1 (P05181 whole entry): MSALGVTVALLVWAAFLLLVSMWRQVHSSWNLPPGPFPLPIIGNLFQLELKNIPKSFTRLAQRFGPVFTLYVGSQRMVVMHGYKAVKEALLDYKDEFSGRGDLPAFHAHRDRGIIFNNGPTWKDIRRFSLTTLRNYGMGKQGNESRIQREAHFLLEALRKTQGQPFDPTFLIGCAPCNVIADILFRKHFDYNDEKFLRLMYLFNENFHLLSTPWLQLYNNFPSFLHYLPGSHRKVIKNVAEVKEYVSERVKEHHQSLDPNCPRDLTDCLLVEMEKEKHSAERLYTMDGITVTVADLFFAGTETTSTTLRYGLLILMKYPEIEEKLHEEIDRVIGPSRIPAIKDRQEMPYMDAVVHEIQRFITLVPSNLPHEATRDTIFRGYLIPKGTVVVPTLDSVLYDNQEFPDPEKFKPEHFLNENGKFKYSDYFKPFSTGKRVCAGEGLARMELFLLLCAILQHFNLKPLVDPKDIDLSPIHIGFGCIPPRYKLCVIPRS

Which results are given for `C=CC(C)(C)c1cc(/C=C/C(=O)c2ccc(O)cc2)c(OC)cc1O` [Licochalcone A, licochalcone A]?
inhibition of CYP3A4 (testosterone), in words [1]: strongly inhibited; % Control activity ([2]; NADPH, 2 mM glutathione): 32.4%; % Control activity ([2]; NADPH, 1000 U/mL catalase): 38.8%; % Control activity ([2]; NADPH, 1000 U/mL superoxide dismutase): 28.1%; % Control activity ([2]; NADPH, mean of two experiments): 42.0%; % Control activity ([2]; without NADPH, mean of two experiments): 100%; remaining enzyme activity after washing out the inhibitor [3]: 57%; IC50, CYP2E1 [4]: >25 µg/mL; IC50, CYP2D6 [5]: 17.23 ± 1.68 µg/mL (≈ 50.9 µM); IC50, CYP2A6 [6]: >25 µg/mL; IC50, CYP2C9 ([7]; lower end of the range of IC50 values): high nM levels; IC50, CYP2C9 ([7]; substrate tolbutamide, mean ± standard deviation): 0.78 ± 0.09 µg/mL (≈ 2.3 µM); inhibition of CYP2C9 at 10 µM, in words [8]: strongly inhibited; inhibition of CYP1A2, in words [9]: strongly inhibited; IC50, CYP2C8 [10]: 1.05 ± 0.08 µg/mL (≈ 3.1 µM); inhibition of CYP1A2 at 10 µM, in words [11]: weakly inhibited; inhibition of CYP2C, in words [12]: strongly inhibited; remaining enzyme activity after washing out the inhibitor [13]: 16.7%; IC50, CYP2C19 [14]: 3.60 ± 0.79 µg/mL (≈ 10.6 µM); KI (inactivation) ([15]; read-out: KI for inactivation of CYP3A4 (midazolam), recombinant human CYP3A4): 2220 nM; Efficiency of inactivation ([15]; recombinant CYP3A4): 0.021 µM⁻¹ min⁻¹; kinact for inactivation of CYP3A4 (midazolam) ([15]; recombinant human CYP3A4): 0.047 min⁻¹; inhibition of CYP2C19 at 10 µM, in words [16]: moderate inhibitor
